Experimental data as given in patent US20150031572A1, “MEANS AND METHODS FOR ASSESSING NEURONAL TOXICITY” (priority 2012, published 2015).
Structures can show the parent of a compound that is named as a salt. Marks after values point to notes of the source that are not given here.

Assay: Plasma metabolite profiling (GC-MS, LC-MS, SPE-LC-MS) of rats dosed once daily over 28 days; treatment ratios versus untreated control
Assay type: in vivo, rat
Settings: for 5-Oxoproline, plasma metabolite ratio versus control / Alanine, plasma metabolite ratio versus control / Arginine (second line of the table), plasma metabolite ratio versus control / Arginine, plasma metabolite ratio versus control / Citrulline, plasma metabolite ratio versus control / Glutamine, plasma metabolite ratio versus control / Proline, plasma metabolite ratio versus control / Tyrosine, plasma metabolite ratio versus control / Creatinine, ratio versus control: male rats; for 5-Oxoproline, plasma metabolite ratio versus control / Alanine, plasma metabolite ratio versus control / Arginine (second line of the table), plasma metabolite ratio versus control / Arginine, plasma metabolite ratio versus control / Citrulline, plasma metabolite ratio versus control / Glutamine, plasma metabolite ratio versus control / Proline, plasma metabolite ratio versus control / Tyrosine, plasma metabolite ratio versus control: high dose; for Creatinine, ratio versus control: Table 12a
Procedure, shortened: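 Male and female rats (5/sex/group) dosed once daily for 28 days; fasted anaesthetized animals bled retro-orbitally (EDTA plasma) on days 7, 14, 28, stored −80 °C under N2. Polar and lipid fractions profiled by GC-MS (derivatized), LC-MS/MRM; steroids by online SPE-LC-MS. Pool-normalized data; treatment ratios vs sex-matched controls, Welch test p-values.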

[1] = plasma, female rats, day 7, high dose, Table 5a
[2] = plasma, female rats, day 7, high dose, Table 5b
[3] = plasma, female rats, day 7, high dose, Table 6c
[4] = plasma, female rats, day 7, high dose, Table 6d
[5] = plasma, female rats, day 14, high dose, Table 5a
[6] = plasma, female rats, day 14, high dose, Table 5b
[7] = plasma, female rats, day 14, high dose, Table 6c
[8] = plasma, female rats, day 14, high dose, Table 6d
[9] = plasma, female rats, day 28, high dose, Table 5a
[10] = plasma, female rats, day 28, high dose, Table 5b
[11] = plasma, female rats, day 28, high dose, Table 6c
[12] = plasma, female rats, day 28, high dose, Table 6d
[13] = plasma, female rats, day 28, high dose, Table 6a
[14] = plasma, female rats, day 28, high dose, Table 6b
[15] = plasma, female rats, day 28, high dose, Table 8c
[16] = plasma, female rats, day 28, high dose, Table 8d

SMILES: OCCOCCN1CCN(C2=Nc3ccccc3Sc3ccccc32)CC1 [Quetiapine fumarate]
- 3-Hydroxybutyrate, ratio versus control [1]: 1.49*
- Histidine, ratio versus control [1]: 1.31*
- Isoleucine, ratio versus control [1]: 1.9*
- Leucine, ratio versus control [1]: 1.98*
- Valine, ratio versus control [1]: 1.49*
- 4-Hydroxy-3-methoxyphenylglycol (HMPG), ratio versus control [2]: 0.73*
- Glucose, ratio versus control [2]: 0.94
- Lactate, ratio versus control [2]: 0.45*
- Malate, ratio versus control [2]: 0.67*
- Metanephrine, ratio versus control [2]: 0.55*
- Pyruvate, ratio versus control [2]: 0.37*
- Uric acid, ratio versus control [2]: 0.92
- 4-Hydroxysphinganine (t18:0, Phytosphingosine), total, ratio versus control [3]: 1.03
- Docosahexaenoic acid (C22:cis[4,7,10,13,16,19]6), ratio versus control [3]: 1.67*
- Docosapentaenoic acid (C22:cis[7,10,13,16,19]5), ratio versus control [3]: 1.98*
- Phosphatidylcholine (C16:0,C16:0), ratio versus control [3]: 1.11*
- Phosphatidylcholine No 02, ratio versus control [3]: 1.05
- TAG (C16:0,C16:1), ratio versus control [3]: 2.83*
- TAG (C16:0,C18:2), ratio versus control [3]: 2.65*
- TAG (C18:2,C18:2), ratio versus control [3]: 1.99*
- TAG (C18:2,C18:3), ratio versus control [3]: 1.83*
- TAG (C18:3,C18:2,C18:1), ratio versus control [3]: 2.04*
- TAG No 059, ratio versus control [3]: 2.1*
- 4-Hydroxyphenylpyruvate, ratio versus control [4]: 0.61*
- Glycine, ratio versus control [4]: 0.82*
- Lactate, ratio versus control [4]: 0.45*
- Lysophosphatidylcholine (C16:0), ratio versus control [4]: 0.97*
- Uric acid, ratio versus control [4]: 0.92
- 3-Hydroxybutyrate, ratio versus control [5]: 1.55*
- Leucine, ratio versus control [5]: 1.44*
- Valine, ratio versus control [5]: 1.24*
- 4-Hydroxy-3-methoxyphenylglycol (HMPG), ratio versus control [6]: 0.67*
- Glucose, ratio versus control [6]: 0.87*
- Lactate, ratio versus control [6]: 0.61*
- Malate, ratio versus control [6]: 0.66*
- Metanephrine, ratio versus control [6]: 0.26*
- Pyruvate, ratio versus control [6]: 0.33*
- Uric acid, ratio versus control [6]: 0.64*
- Docosahexaenoic acid (C22:cis[4,7,10,13,16,19]6), ratio versus control [7]: 1.58*
- Docosapentaenoic acid (C22:cis[7,10,13,16,19]5), ratio versus control [7]: 2.01*
- Palmitic acid (C16:0), ratio versus control [7]: 1.24*
- Phosphatidylcholine (C16:0,C16:0), ratio versus control [7]: 1.2*
- TAG (C16:0,C16:1), ratio versus control [7]: 2.16*
- TAG (C16:0,C18:1,C18:3), ratio versus control [7]: 1.52*
- TAG (C16:0,C18:2), ratio versus control [7]: 1.82*
- TAG (C18:2,C18:2), ratio versus control [7]: 1.5*
- TAG (C18:3,C18:2,C18:1), ratio versus control [7]: 1.63*
- TAG No 059, ratio versus control [7]: 2.21*
- 4-Hydroxyphenylpyruvate, ratio versus control [8]: 0.62*
- Glycine, ratio versus control [8]: 0.71*
- Lactate, ratio versus control [8]: 0.61*
- Lysophosphatidylcholine (C16:0), ratio versus control [8]: 0.98*
- Uric acid, ratio versus control [8]: 0.64*
- 3-Hydroxybutyrate, ratio versus control [9]: 2.04*
- Galactose, lipid fraction, ratio versus control [9]: 1.21
- Glutamine, ratio versus control [9]: 1.31*
- Isoleucine, ratio versus control [9]: 1.3*
- Leucine, ratio versus control [9]: 1.27*
- 4-Hydroxy-3-methoxyphenylglycol (HMPG), ratio versus control [10]: 0.8
- Glucose, ratio versus control [10]: 0.85*
- Lactate, ratio versus control [10]: 0.46*
- Malate, ratio versus control [10]: 0.55*
- Metanephrine, ratio versus control [10]: 0.38*
- Pyruvate, ratio versus control [10]: 0.36*
- Uric acid, ratio versus control [10]: 0.68*
- 4-Hydroxysphinganine (t18:0, Phytosphingosine), total, ratio versus control [11]: 1.12
- Docosahexaenoic acid (C22:cis[4,7,10,13,16,19]6), ratio versus control [11]: 1.24*
- Docosapentaenoic acid (C22:cis[7,10,13,16,19]5), ratio versus control [11]: 1.76*
- Galactose, lipid fraction, ratio versus control [11]: 1.21
- Phosphatidylcholine (C16:0,C16:0), ratio versus control [11]: 1.07
- Phosphatidylcholine (C16:0,C20:5), ratio versus control [11]: 1.1*
- Phosphatidylcholine (C16:1,C18:2), ratio versus control [11]: 1.07
- Phosphatidylcholine No 02, ratio versus control [11]: 1.31*
- TAG (C16:0,C16:1), ratio versus control [11]: 2.14*
- TAG (C16:0,C18:1,C18:3), ratio versus control [11]: 2.06*
- TAG (C16:0,C18:2), ratio versus control [11]: 1.84*
- TAG (C18:2,C18:3), ratio versus control [11]: 1.93*
- TAG (C18:3,C18:2,C18:1), ratio versus control [11]: 1.27*
- TAG No 059, ratio versus control [11]: 1.48*
- 4-Hydroxyphenylpyruvate, ratio versus control [12]: 0.36*
- Glycine, ratio versus control [12]: 0.86*
- Lactate, ratio versus control [12]: 0.46*
- Lysophosphatidylcholine (C16:0), ratio versus control [12]: 0.97*
- Uric acid, ratio versus control [12]: 0.68*
- 4-Hydroxysphinganine (t18:0, Phytosphingosine), total, ratio versus control (rat, in vivo): 1.46*
- Isoleucine, ratio versus control (rat, in vivo): 1.46*
- Phosphatidylcholine No 02, ratio versus control (rat, in vivo): 1.17*
- TAG (C16:0,C18:1,C18:3), ratio versus control (rat, in vivo): 1.41*
- TAG (C18:2,C18:2), ratio versus control (rat, in vivo): 1.41*
- TAG (C18:2,C18:3), ratio versus control (rat, in vivo): 1.37*
- Valine, ratio versus control (rat, in vivo): 1.12*

SMILES: C#CCN(C)[C@H](C)Cc1ccccc1 [Selegiline hydrochloride]
- 3-Methoxytyrosine, ratio versus control [13]: 1.38*
- Isoleucine, ratio versus control [13]: 1.18*
- 4-Hydroxy-3-methoxyphenylglycol (HMPG), ratio versus control [14]: 0.3*
- 14-Methylhexadecanoic acid, ratio versus control [14]: 1.04
- 16-Methylheptadecanoic acid, ratio versus control [14]: 0.55*
- 17-Methyloctadecanoic acid, ratio versus control [14]: 0.57*
- Ceramide (d18:1,C24:1), ratio versus control [14]: 0.48*
- Choline plasmalogen No 03, ratio versus control [14]: 0.82
- Homovanillic acid (HVA), ratio versus control [14]: 0.45*
- Isopalmitic acid (C16:0), ratio versus control [14]: 0.69*
- Lactate, ratio versus control [14]: 0.72*
- Myristic acid (C14:0), ratio versus control [14]: 0.97
- Phosphatidylcholine (C16:0, C20:4), ratio versus control [14]: 0.94*
- Phosphatidylcholine No 04, ratio versus control [14]: 0.84
- Pyruvate, ratio versus control [14]: 0.36*
- 3-Hydroxybutyrate, ratio versus control [15]: 1.29 *
- Isoleucine, ratio versus control [15]: 1.18 *
- TAG (C16:0,C18:2), ratio versus control [15]: 1.81 *
- 16-Methylheptadecanoic acid, ratio versus control [16]: 0.55 *
- 17-Methyloctadecanoic acid, ratio versus control [16]: 0.57 *
- Ceramide (d18:1,C24:1), ratio versus control [16]: 0.48 *
- Phosphatidylcholine (C16:0, C20:4), ratio versus control [16]: 0.94 *
- Phosphatidylcholine (C18:0, C20:3), ratio versus control [16]: 0.92 *
- Pyruvate, ratio versus control [16]: 0.36 *

SMILES: CC(=O)[O-].[Tl+] [Thallium(I) acetate]
- 5-Oxoproline, plasma metabolite ratio versus control (day 7 (m7)): 0.92
- Alanine, plasma metabolite ratio versus control (day 7 (m7)): 0.81
- Arginine (second line of the table), plasma metabolite ratio versus control (day 7 (m7)): 0.90
- Arginine, plasma metabolite ratio versus control (day 7 (m7)): 0.97
- Citrulline, plasma metabolite ratio versus control (day 7 (m7)): 0.84
- Glutamine, plasma metabolite ratio versus control (day 7 (m7)): 0.83
- Proline, plasma metabolite ratio versus control (day 7 (m7)): 0.85
- Tyrosine, plasma metabolite ratio versus control (day 7 (m7)): 0.82
- 5-Oxoproline, plasma metabolite ratio versus control (day 14 (m14)): 0.87
- Alanine, plasma metabolite ratio versus control (day 14 (m14)): 0.95
- Arginine (second line of the table), plasma metabolite ratio versus control (day 14 (m14)): 0.80
- Arginine, plasma metabolite ratio versus control (day 14 (m14)): 0.87
- Citrulline, plasma metabolite ratio versus control (day 14 (m14)): 0.84
- Glutamine, plasma metabolite ratio versus control (day 14 (m14)): 0.77
- Proline, plasma metabolite ratio versus control (day 14 (m14)): 0.80
- Tyrosine, plasma metabolite ratio versus control (day 14 (m14)): 0.90
- 5-Oxoproline, plasma metabolite ratio versus control (day 28 (m28)): 0.83
- Alanine, plasma metabolite ratio versus control (day 28 (m28)): 0.79
- Arginine (second line of the table), plasma metabolite ratio versus control (day 28 (m28)): 0.85
- Arginine, plasma metabolite ratio versus control (day 28 (m28)): 0.84
- Citrulline, plasma metabolite ratio versus control (day 28 (m28)): 0.94
- Glutamine, plasma metabolite ratio versus control (day 28 (m28)): 0.78
- Proline, plasma metabolite ratio versus control (day 28 (m28)): 0.85
- Tyrosine, plasma metabolite ratio versus control (day 28 (m28)): 0.87
- Creatinine, ratio versus control (plasma, day 7, high dose): 1.69
- Creatinine, ratio versus control (plasma, day 14, high dose): 1.50
- Creatinine, ratio versus control (plasma, day 28, high dose): 1.89
